{"source": "paper PMC9422153", "about": "“A novel antibiotic combination of linezolid and polymyxin B octapeptide PBOP against clinical Pseudomonas aeruginosa strains” (Annals of Clinical Microbiology and Antimicrobials, 2022)", "key": {"[1]": {"tested_on": "PAB41", "assay": "Time-kill assay, bacterial burdens in vitro", "format": "cell-based, Pseudomonas aeruginosa", "conditions": "PAB41, 1 × 10^5 CFU in 96-well plates; 1 h, 6 h, 12 h, 24 h; LP compared to single-treated groups", "experimental": "(§1) To explore the antibacterial activity of LP combination in the P. aeruginosa in vitro, PA14 were cultured in 96-well plates and were treated with PBS, linezolid, PBOP or LP for 1 h, 6 h, 12 h, and 24 h.\n(§2) A1–A4 1 × 10^5 CFU of PA14 were seeded in 96-well plates and treated with PBS, linezolid, PBOP or combination of linezolid and PBOP (LP) for 1 h (A1), 6 h (A2), 12 h (A3), and 24 h (A4). The bacteria burdens on the LB agar plates were counted. B1–B4 1 × 10^5 CFU of PA2 were seeded in 96-well plates and treated with PBS, linezolid, PBOP or LP for 1 h (B1), 6 h (B2), 12 h (B3), and 24 h (B4). C1–C4 1 × 10^5 CFU of PAB41 were seeded in 96-well plates and treated with PBS, linezolid, PBOP or LP for 1 h (C1), 6 h (C2), 12 h (C3), and 24 h (C4). The bacteria burdens were determined as described above."}, "[2]": {"tested_on": "PA2", "assay": "Time-kill assay, bacterial burdens in vitro", "format": "cell-based, Pseudomonas aeruginosa", "conditions": "PA2, 1 × 10^5 CFU in 96-well plates; 1 h, 6 h, 12 h, 24 h; LP compared to single-treated groups", "experimental": "as §1, §2"}, "[3]": {"tested_on": "P. aeruginosa PA14", "format": "cell-based, Pseudomonas aeruginosa", "experimental": "Synergistic effect of the 6 polymyxin B or polymyxin E derivatives in combination with 5 conventional antibacterial agents was detected using the checkerboard method as described on the previous study. Briefly, the serial concentrations of test compounds were prepared by a two-dimensional array. The tested dilutions were based on the MICs of the two different compounds. The fractional inhibitory concentration index (FIC) was applied to illuminate the checkerboard test based on formulas as follows: FIC Index = […] = MICA+B/MICA, and FICB = MICB+A/MICB. The value of MICA+B is indicated as the MIC value of Compound A with Compound B, and equally for MICB+A. […] The experiments were repeated in triplicate."}, "[4]": {"tested_on": "C. elegans infected with PA14", "assay": "C. elegans infection model", "format": "in vivo, Caenorhabditis elegans", "conditions": "PA14 infection on SK plate, linezolid 8 μg/mL, PBOP 16 μg/mL", "experimental": "To determine the protective effect of LP, all groups of C. elegans were infected with PA14 in slow killing (SK) agar plate and were treated with PBS, linezolid (8 μg/mL), PBOP (16 μg/mL) or LP. The mortality of the infected C. elegans was evaluated for 7 days. […] The bacterial loads inside the C. elegans were counted at 12 h or 24 h post-infection as previously described. Briefly, the infected nematodes were mixed with silicon carbide particles and vortexed at maximum speed for one minute. The resulting suspension was serially diluted and plated on a selective agar plate to determine the bacterial CFU. This experiment was performed in triplicate."}, "[5]": {"tested_on": "all tested P. aeruginosa strains", "format": "cell-based, Pseudomonas aeruginosa", "conditions": "24 h", "experimental": "The MICs (minimal inhibitory concentrations) were determined for different P. aeruginosa strains using micro-dilution method, with a concentration of 1 × 10^5 CFU/mL on LB broth for 24 h, according to the published procedures. The experiment was carried out in three repeats."}}, "note": "Bridge positions count the residues as written; N and C are the ends. Square brackets hold non-standard residues; d marks the D form. Peptide text beside a SMILES is read from it. Dab = NCC[C@H](N)C(=O)O", "data": [{"smiles": "CC(C)C[C@@H]1NC(=O)[C@@H](Cc2ccccc2)NC(=O)[C@H](CCN)NC(=O)[C@@H](NC(=O)[C@@H](N)CCN)CCNC(=O)[C@H]([C@@H](C)O)NC(=O)[C@H](CCN)NC(=O)[C@H](CCN)NC1=O", "note": "[PBOP, polymyxin B octapeptide] (H-[Dab][Dab][Dab][dF]L[Dab][Dab]T; lactam 2-C (inferred); N-terminus assumed)", "values": [{"measurement": "bacterial CFU / bactericidal activity", "setting": "[1]", "value": "no remarkably bactericidal activity"}, {"measurement": "bacterial CFU / bactericidal activity", "setting": "[2]", "value": "no remarkably bactericidal activity"}, {"measurement": "FIC (lowest FIC Index) combined with Erythromycin", "setting": "[3]", "value": 0.156}, {"measurement": "FIC (lowest FIC Index) combined with Lincomycin", "setting": "[3]", "value": 0.094}, {"measurement": "FIC (lowest FIC Index) combined with Linezolid", "setting": "[3]", "value": 0.078}, {"measurement": "FIC (lowest FIC Index) combined with Nisin", "setting": "[3]", "value": 0.313}, {"measurement": "FIC (lowest FIC Index) combined with Vancomycin", "setting": "[3]", "value": 0.156}, {"measurement": "bacterial loads inside C. elegans", "setting": "[4]; 12 h and 24 h post infection", "value": "a great number of bacteria were detected"}, {"measurement": "survival of infected C. elegans", "setting": "[4]; monitored 7 days", "value": "died at day 3"}, {"measurement": "MIC", "setting": "[5]", "value": "over 256 µg/mL"}]}]}
